From the NIST ThermoML archive (doi:10.1021/je800579j)

Columns and labels:
[1] = Liquid, Pycnometric method
[2] = refractive index (Na D-line) (dimensionless); settings: Liquid, Standard Abbe refractometry
[3] = xn = mol fraction of the nth substance listed; settings: Liquid, Pycnometric method
[4] = refractive index (Na D-line) (dimensionless); xn = mol fraction of the nth substance listed; settings: Liquid, Standard Abbe refractometry

c1ccccc1 [benzene]
Settings | mass density, [1] [kg/m3] | refractive index, [2]
288.15 K | 884.3 | 1.5042
293.15 K | 878.95 | 1.5011
298.15 K | 873.61 | 1.498
303.15 K | 868.26 | 1.4949
308.15 K | 862.9 | 1.4918
313.15 K | 857.56 | 1.4887
318.15 K | 852.23 | 1.4856

Cc1ccccc1 [toluene]
Settings | mass density, [1] [kg/m3] | refractive index, [2]
288.15 K | 871.79 | 1.4998
293.15 K | 867.08 | 1.497
298.15 K | 862.36 | 1.4942
303.15 K | 857.64 | 1.4913
308.15 K | 852.93 | 1.4884
313.15 K | 848.21 | 1.4855
318.15 K | 843.49 | 1.4826

Cc1cc(C)cc(C)c1 [1,3,5-trimethylbenzene]
Settings | mass density, [1] [kg/m3] | refractive index, [2]
288.15 K | 869.28 | 1.502
293.15 K | 865.37 | 1.4995
298.15 K | 861.45 | 1.4969
303.15 K | 857.54 | 1.4944
308.15 K | 853.63 | 1.4918
313.15 K | 849.71 | 1.4893
318.15 K | 845.8 | 1.4868

Cc1ccccc1C [1,2-dimethylbenzene]
Settings | mass density, [1] [kg/m3] | refractive index, [2]
288.15 K | 884.09 | 1.5083
293.15 K | 879.83 | 1.5055
298.15 K | 875.57 | 1.5029
303.15 K | 871.31 | 1.5002
308.15 K | 867.05 | 1.4975
313.15 K | 862.79 | 1.4948
318.15 K | 858.53 | 1.4921

C1COCCO1 [1,4-dioxane] + Cc1cc(C)cc(C)c1
x1 = 1
Settings | mass density, [3] [kg/m3] | refractive index, [4]
288.15 K | 1039.23 | 1.4245
293.15 K | 1033.59 | 1.4224
298.15 K | 1027.95 | 1.4203
303.15 K | 1022.32 | 1.4182
308.15 K | 1016.68 | 1.4161
313.15 K | 1011.05 | 1.4139
318.15 K | 1005.42 | 1.4117

Cc1ccccc1 [toluene] + C1COCCO1
x2 = 0
Settings | mass density, [3] [kg/m3] | refractive index, [4]
288.15 K | 871.79 | 1.4998
293.15 K | 867.08 | 1.497
298.15 K | 862.36 | 1.4942
303.15 K | 857.64 | 1.4913
308.15 K | 852.93 | 1.4884
313.15 K | 848.21 | 1.4855
318.15 K | 843.49 | 1.4826

Cc1cccc(C)c1 [1,3-dimethylbenzene]
Settings | mass density, [1] [kg/m3] | refractive index, [2]
288.15 K | 868.59 | 1.4999
293.15 K | 864.31 | 1.4974
298.15 K | 860.02 | 1.4948
303.15 K | 855.74 | 1.4922
308.15 K | 851.45 | 1.4896
313.15 K | 847.17 | 1.487
318.15 K | 842.88 | 1.4844

c1ccccc1 [benzene] + C1COCCO1
x2 = 0
Settings | mass density, [3] [kg/m3] | refractive index, [4]
288.15 K | 884.3 | 1.5042
293.15 K | 878.95 | 1.5011
298.15 K | 873.61 | 1.498
303.15 K | 868.26 | 1.4949
308.15 K | 862.9 | 1.4918
313.15 K | 857.56 | 1.4887
318.15 K | 852.23 | 1.4856

C1COCCO1 [1,4-dioxane] + Cc1ccc(C)cc1
x1 = 1
Settings | mass density, [3] [kg/m3] | refractive index, [4]
288.15 K | 1039.23 | 1.4245
293.15 K | 1033.59 | 1.4224
298.15 K | 1027.95 | 1.4203
303.15 K | 1022.32 | 1.4182
308.15 K | 1016.68 | 1.4161
313.15 K | 1011.05 | 1.4139
318.15 K | 1005.42 | 1.4117

Cc1ccc(C)cc1 [1,4-dimethylbenzene]
Settings | mass density, [1] [kg/m3] | refractive index, [2]
288.15 K | 865.52 | 1.4985
293.15 K | 861.17 | 1.4959
298.15 K | 856.82 | 1.4933
303.15 K | 852.47 | 1.4907
308.15 K | 848.12 | 1.4881
313.15 K | 843.77 | 1.4855
318.15 K | 839.42 | 1.483

C1COCCO1 [1,4-dioxane] + Cc1cccc(C)c1
x1 = 1
Settings | mass density, [3] [kg/m3] | refractive index, [4]
288.15 K | 1039.23 | 1.4245
293.15 K | 1033.59 | 1.4224
298.15 K | 1027.95 | 1.4203
303.15 K | 1022.32 | 1.4182
308.15 K | 1016.68 | 1.4161
313.15 K | 1011.05 | 1.4139
318.15 K | 1005.42 | 1.4117

C1COCCO1 [1,4-dioxane] + Cc1ccccc1C
x1 = 1
Settings | mass density, [3] [kg/m3] | refractive index, [4]
288.15 K | 1039.23 | 1.4245
293.15 K | 1033.59 | 1.4224
298.15 K | 1027.95 | 1.4203
303.15 K | 1022.32 | 1.4182
308.15 K | 1016.68 | 1.4161
313.15 K | 1011.05 | 1.4139
318.15 K | 1005.42 | 1.4117

C1COCCO1 [1,4-dioxane]
Settings | mass density, [1] [kg/m3] | refractive index, [2]
288.15 K | 1039.23 | 1.4245
293.15 K | 1033.59 | 1.4224
298.15 K | 1027.95 | 1.4203
303.15 K | 1022.32 | 1.4182
308.15 K | 1016.68 | 1.4161
313.15 K | 1011.05 | 1.4139
318.15 K | 1005.42 | 1.4117
